Test results: publication PMC5218480 (PLoS ONE, 2017)

Test system: MV-4-11 cells
Experiment: Gene expression microarray analysis (Affymetrix PrimeView) and GSEA
Type: cell-based, human
Parameters: RFU PODN (11730768_x_at) / Fold change /veh PODN (11730768_x_at) / RFU LINC00158 (11744669_a_at) / Fold change /veh LINC00158 (11744669_a_at) / RFU DUSP10 (11751237_a_at) / Fold change /veh DUSP10 (11751237_a_at) / RFU ID3 (11757404_x_at) / Fold change /veh ID3 (11757404_x_at) / RFU PLEKHG5 (11737974_s_at) / Fold change /veh PLEKHG5 (11737974_s_at) / RFU LRRC4B (11730491_at) / Fold change /veh LRRC4B (11730491_at) / RFU GIMAP4 (11747438_a_at) / Fold change /veh GIMAP4 (11747438_a_at) / RFU KRT8 (11758183_x_at) / Fold change /veh KRT8 (11758183_x_at) / RFU CNN1 (11734310_a_at) / Fold change /veh CNN1 (11734310_a_at) / RFU VPS37D (11726825_at) / Fold change /veh VPS37D (11726825_at) / RFU C10orf10 (11716522_x_at) / Fold change /veh C10orf10 (11716522_x_at) / RFU KIR2DL2 /// KIR2DL4 /// KIR2DL5A /// KIR2DL5B /// KIR2DS1 /// KIR2DS2 /// KIR2DS3 /// KIR2DS4 /// KIR3DL3 /// KIR3DL3 /// KIR3DS1 (11738374_at) / Fold change /veh KIR2DL2 /// KIR2DL4 /// KIR2DL5A /// KIR2DL5B /// KIR2DS1 /// KIR2DS2 /// KIR2DS3 /// KIR2DS4 /// KIR3DL3 /// KIR3DL3 /// KIR3DS1 (11738374_at) / RFU C1QL1 (11718748_at) / Fold change /veh C1QL1 (11718748_at) / RFU TMPRSS4 (11747572_a_at) / Fold change /veh TMPRSS4 (11747572_a_at) / RFU HAMP (11756126_x_at) / Fold change /veh HAMP (11756126_x_at) / RFU RNFT2 (11725882_a_at) / Fold change /veh RNFT2 (11725882_a_at) / RFU NR4A2 (11747474_a_at) / Fold change /veh NR4A2 (11747474_a_at) / RFU ABCC12 (11746883_a_at) / Fold change /veh ABCC12 (11746883_a_at) / RFU TMEM136 (11760407_x_at) / Fold change /veh TMEM136 (11760407_x_at) / RFU CLDN22 /// WWC2 (11732394_at) / Fold change /veh CLDN22 /// WWC2 (11732394_at) / RFU HLA-DPB1 (11760878_x_at) / Fold change /veh HLA-DPB1 (11760878_x_at) / RFU SPINT1 (11716480_a_at) / Fold change /veh SPINT1 (11716480_a_at) / RFU GAP43 (11754022_s_at) / Fold change /veh GAP43 (11754022_s_at) / RFU A4GNT (11735810_at) / Fold change /veh A4GNT (11735810_at) / RFU PRB3 (11715151_x_at) / Fold change /veh PRB3 (11715151_x_at) / RFU TUBB4B (11761932_at) / Fold change /veh TUBB4B (11761932_at) / RFU CAPN14 (11732068_a_at) / Fold change /veh CAPN14 (11732068_a_at) / RFU TMCC2 (11721928_a_at) / Fold change /veh TMCC2 (11721928_a_at) / RFU IRGQ (11745062_a_at) / Fold change /veh IRGQ (11745062_a_at) / RFU FAM174B (11720279_a_at) / Fold change /veh FAM174B (11720279_a_at) / RFU TMPRSS4 (11748680_a_at) / Fold change /veh TMPRSS4 (11748680_a_at) / RFU FAM212B (11763350_a_at) / Fold change /veh FAM212B (11763350_a_at) / RFU PLEKHG5 (11743358_a_at) / Fold change /veh PLEKHG5 (11743358_a_at) / RFU ZSCAN30 (11745921_a_at) / Fold change /veh ZSCAN30 (11745921_a_at) / RFU CMKLR1 (11741424_a_at) / Fold change /veh CMKLR1 (11741424_a_at) / RFU LOC101060620 /// MAPK8IP1 (11723275_at) / Fold change /veh LOC101060620 /// MAPK8IP1 (11723275_at) / RFU SPTSSB (11747773_x_at) / Fold change /veh SPTSSB (11747773_x_at) / RFU PRSS12 (11739890_at) / Fold change /veh PRSS12 (11739890_at) / RFU BIN1 (11741810_x_at) / Fold change /veh BIN1 (11741810_x_at) / RFU WNT11 (11732464_a_at) / Fold change /veh WNT11 (11732464_a_at) / RFU C10orf10 (11716521_a_at) / Fold change /veh C10orf10 (11716521_a_at) / RFU C5orf56 (11738089_at) / Fold change /veh C5orf56 (11738089_at) / RFU CYB561 (11721691_x_at) / Fold change /veh CYB561 (11721691_x_at) / RFU ANKRD19P (11752326_a_at) / Fold change /veh ANKRD19P (11752326_a_at) / RFU OR2T12 /// OR2T33 /// OR2T8 (11738714_s_at) / Fold change /veh OR2T12 /// OR2T33 /// OR2T8 (11738714_s_at) / RFU VCAN (11748164_a_at) / Fold change /veh VCAN (11748164_a_at) / RFU JSRP1 (11732532_at) / Fold change /veh JSRP1 (11732532_at) / RFU KRTAP10-11 (11738290_x_at) / Fold change /veh KRTAP10-11 (11738290_x_at) / RFU MYO3A (11730013_a_at) / Fold change /veh MYO3A (11730013_a_at) / RFU EBF3 (11725865_a_at) / Fold change /veh EBF3 (11725865_a_at) / RFU CAMK2N1 (11719241_x_at) / Fold change /veh CAMK2N1 (11719241_x_at) / RFU C5orf56 (11738088_a_at) / Fold change /veh C5orf56 (11738088_a_at) / RFU OLFML3 (11715873_a_at) / Fold change /veh OLFML3 (11715873_a_at) / RFU LOC100653217 /// NTM (11731650_a_at) / Fold change /veh LOC100653217 /// NTM (11731650_a_at) / RFU MAPK11 (11762145_a_at) / Fold change /veh MAPK11 (11762145_a_at) / RFU FIZ1 (11724087_x_at) / Fold change /veh FIZ1 (11724087_x_at) / RFU OASL (11726364_x_at) / Fold change /veh OASL (11726364_x_at) / RFU SOX15 (11748057_x_at) / Fold change /veh SOX15 (11748057_x_at) / RFU CD79A (11719716_a_at) / Fold change /veh CD79A (11719716_a_at) / RFU HIST1H1D (11736915_at) / Fold change /veh HIST1H1D (11736915_at) / RFU CASKIN2 (11723855_a_at) / Fold change /veh CASKIN2 (11723855_a_at) / RFU LOC730098 (11760151_x_at) / Fold change /veh LOC730098 (11760151_x_at) / RFU OR4N2 (11742367_at) / Fold change /veh OR4N2 (11742367_at) / RFU PRRT2 (11749266_a_at) / Fold change /veh PRRT2 (11749266_a_at) / RFU SNX32 (11753110_a_at) / Fold change /veh SNX32 (11753110_a_at) / RFU CDHR5 (11726645_a_at) / Fold change /veh CDHR5 (11726645_a_at) / RFU RCAN1 (11760418_a_at) / Fold change /veh RCAN1 (11760418_a_at) / RFU FAM167A (11723789_a_at) / Fold change /veh FAM167A (11723789_a_at) / RFU FAM26E (11764081_at) / Fold change /veh FAM26E (11764081_at) / RFU ISYNA1 (11749810_s_at) / Fold change /veh ISYNA1 (11749810_s_at) / RFU ACY1 (11761880_at) / Fold change /veh ACY1 (11761880_at) / RFU 11764098_at / Fold change /veh 11764098_at / RFU SAMD14 (11745864_x_at) / Fold change /veh SAMD14 (11745864_x_at) / RFU NPB (11741838_a_at) / Fold change /veh NPB (11741838_a_at) / RFU TMPRSS6 (11731388_a_at) / Fold change /veh TMPRSS6 (11731388_a_at) / RFU KRTAP10-2 (11738614_at) / Fold change /veh KRTAP10-2 (11738614_at) / RFU ARHGAP8 /// PRR5-ARHGAP8 (11727945_x_at) / Fold change /veh ARHGAP8 /// PRR5-ARHGAP8 (11727945_x_at) / RFU KRTAP5-7 /// NADSYN1 (11734609_at) / Fold change /veh KRTAP5-7 /// NADSYN1 (11734609_at) / RFU RASL12 (11751679_a_at) / Fold change /veh RASL12 (11751679_a_at) / RFU CDKN2B (11736163_a_at) / Fold change /veh CDKN2B (11736163_a_at) / RFU PRF1 (11729649_at) / Fold change /veh PRF1 (11729649_at) / RFU, ZNF638 /// ZNF638-IT1 / Fold change vs veh, ZNF638 /// ZNF638-IT1 / RFU, PANK3 / Fold change vs veh, PANK3 / RFU, SH3YL1 / Fold change vs veh, SH3YL1 / RFU, ZEB2 / Fold change vs veh, ZEB2 / RFU, NRIP1 / Fold change vs veh, NRIP1 / RFU, PTTG1IP / Fold change vs veh, PTTG1IP / RFU, CAPN2 / Fold change vs veh, CAPN2 / RFU, MED14 / Fold change vs veh, MED14 / RFU, SNORA58 / Fold change vs veh, SNORA58 / RFU, C1orf63 / Fold change vs veh, C1orf63 / RFU, LRRFIP1 / Fold change vs veh, LRRFIP1 / RFU, NDUFAF7 / Fold change vs veh, NDUFAF7 / RFU, SLC12A2 / Fold change vs veh, SLC12A2 / RFU, IBTK / Fold change vs veh, IBTK / RFU, ESF1 / Fold change vs veh, ESF1 / Fold change vs veh, TMEM50B / RFU, TAOK1 / Fold change vs veh, TAOK1 / RFU, ACBD3 / Fold change vs veh, ACBD3 / RFU, TMA16 / Fold change vs veh, TMA16 / RFU, RWDD3 / Fold change vs veh, RWDD3 / RFU, BCAT1 / Fold change vs veh, BCAT1 / RFU, EDEM3 / Fold change vs veh, EDEM3 / RFU, TMEM33 / Fold change vs veh, TMEM33 / RFU, WDR75 / Fold change vs veh, WDR75 / RFU, AHCTF1 / Fold change vs veh, AHCTF1 / RFU, TFRC / Fold change vs veh, TFRC / RFU, ZDHHC17 / Fold change vs veh, ZDHHC17 / RFU, NOM1 / Fold change vs veh, NOM1 / RFU, ARL8B / Fold change vs veh, ARL8B / RFU, ZBTB11 / Fold change vs veh, ZBTB11 / RFU, TAMM41 / Fold change vs veh, TAMM41 / RFU, KIAA1704 /// LOC100996395 / Fold change vs veh, KIAA1704 /// LOC100996395 / RFU, ING1 / Fold change vs veh, ING1 / RFU, TRMT61B / Fold change vs veh, TRMT61B / RFU, FUBP3 / Fold change vs veh, FUBP3 / RFU, TP53 / Fold change vs veh, TP53 / RFU, TNKS2 / Fold change vs veh, TNKS2 / RFU, ZFP14 / Fold change vs veh, ZFP14 / RFU, ACTR2 / Fold change vs veh, ACTR2 / RFU, PPP3R1 / Fold change vs veh, PPP3R1 / RFU, PIK3R1 / Fold change vs veh, PIK3R1 / RFU, HNRNPA1 / Fold change vs veh, HNRNPA1 / RFU, RNF170 / Fold change vs veh, RNF170 / RFU, ZNF28 / Fold change vs veh, ZNF28 / RFU, RNGTT / Fold change vs veh, RNGTT / RFU, OGT / Fold change vs veh, OGT / RFU, BRD1 / Fold change vs veh, BRD1 / RFU, MARS / Fold change vs veh, MARS / RFU, ZNF655 / Fold change vs veh, ZNF655 / RFU, FAHD1 / Fold change vs veh, FAHD1 / RFU, BDP1 / Fold change vs veh, BDP1 / RFU, LRRCC1 / Fold change vs veh, LRRCC1 / RFU, ARID1A / Fold change vs veh, ARID1A / RFU, ZNF146 / Fold change vs veh, ZNF146 / RFU, ZNF330 / Fold change vs veh, ZNF330 / RFU, GPN3 / Fold change vs veh, GPN3 / RFU, C9orf123 / Fold change vs veh, C9orf123 / RFU, N4BP2L2 / Fold change vs veh, N4BP2L2 / RFU, ARFIP1 / Fold change vs veh, ARFIP1 / RFU, FAM179B / Fold change vs veh, FAM179B / RFU, BCL10 / Fold change vs veh, BCL10 / RFU, UHRF1BP1L / Fold change vs veh, UHRF1BP1L / RFU, BET1 / Fold change vs veh, BET1 / RFU, CNOT2 / Fold change vs veh, CNOT2 / RFU, ZNF268 / Fold change vs veh, ZNF268 / Fold change vs veh, ZNF507 / RFU, DGCR2 / Fold change vs veh, DGCR2 / RFU, WDSUB1 / Fold change vs veh, WDSUB1 / Fold change vs veh, HSP90B1 /// MIR3652 / RFU, ADSS / Fold change vs veh, ADSS / RFU, GK / Fold change vs veh, GK / RFU, ZNF148 / Fold change vs veh, ZNF148 / RFU, TAF9 / Fold change vs veh, TAF9 / RFU, SLC1A5 / Fold change vs veh, SLC1A5 / RFU, SLMO2 / Fold change vs veh, SLMO2 / RFU, ABCC4 / Fold change vs veh, ABCC4 / RFU, LOC101060439 /// RAP1B / Fold change vs veh, LOC101060439 /// RAP1B / RFU, RFX7 / Fold change vs veh, RFX7 / RFU, GTPBP10 / Fold change vs veh, GTPBP10 / RFU, CNEP1R1 / Fold change vs veh, CNEP1R1 / RFU, BIVM-ERCC5 /// ERCC5 / Fold change vs veh, BIVM-ERCC5 /// ERCC5 / RFU, ILF3 / Fold change vs veh, ILF3 / RFU 11762660_at / Fold change /veh 11762660_at / RFU VCAN (11757783_s_at) / Fold change /veh VCAN (11757783_s_at) / RFU DDX43 (11728927_at) / Fold change /veh DDX43 (11728927_at) / RFU KRT8 (11758188_x_at) / Fold change /veh KRT8 (11758188_x_at) / RFU NKD1 (11759106_at) / Fold change /veh NKD1 (11759106_at) / RFU SRD5A1 (11742802_a_at) / Fold change /veh SRD5A1 (11742802_a_at) / RFU TPSAB1 /// TPSB2 (11721975_s_at) / Fold change /veh TPSAB1 /// TPSB2 (11721975_s_at) / RFU GSTM3 (11746129_a_at) / Fold change /veh GSTM3 (11746129_a_at) / RFU IL23R (11737362_x_at) / Fold change /veh IL23R (11737362_x_at) / RFU TMEM51 (11727254_a_at) / Fold change /veh TMEM51 (11727254_a_at) / RFU PIWIL2 (11732686_x_at) / Fold change /veh PIWIL2 (11732686_x_at) / RFU ORM1 (11744905_x_at) / Fold change /veh ORM1 (11744905_x_at) / RFU CCDC152 (11743942_at) / Fold change /veh CCDC152 (11743942_at) / RFU ECM1 (11717891_a_at) / Fold change /veh ECM1 (11717891_a_at) / RFU IL23R (11748794_a_at) / Fold change /veh IL23R (11748794_a_at) / RFU TNFAIP8L3 (11732012_x_at) / Fold change /veh TNFAIP8L3 (11732012_x_at) / RFU MBOAT4 (11741988_at) / Fold change /veh MBOAT4 (11741988_at) / RFU 11764193_at / Fold change /veh 11764193_at / RFU TMEM53 (11763286_at) / Fold change /veh TMEM53 (11763286_at) / RFU MAGEB2 (11727129_at) / Fold change /veh MAGEB2 (11727129_at) / RFU TMEM200A (11744735_a_at) / Fold change /veh TMEM200A (11744735_a_at) / RFU CCDC152 (11751479_a_at) / Fold change /veh CCDC152 (11751479_a_at) / RFU FAM211A (11726209_a_at) / Fold change /veh FAM211A (11726209_a_at) / RFU RGS16 (11746705_a_at) / Fold change /veh RGS16 (11746705_a_at) / RFU VCAN (11755009_s_at) / Fold change /veh VCAN (11755009_s_at) / RFU RHOB (11743442_s_at) / Fold change /veh RHOB (11743442_s_at) / RFU RGS16 (11720943_a_at) / Fold change /veh RGS16 (11720943_a_at) / RFU RGS16 (11720944_at) / Fold change /veh RGS16 (11720944_at) / RFU, VPS4B / Fold change vs veh, VPS4B / RFU, CREB1 / Fold change vs veh, CREB1 / RFU, DNAJC13 / Fold change vs veh, DNAJC13 / RFU, GNAQ / Fold change vs veh, GNAQ / RFU, CDK5R1 / Fold change vs veh, CDK5R1 / RFU, ZRANB3 / Fold change vs veh, ZRANB3 / RFU, CUL4A / Fold change vs veh, CUL4A / RFU, CCNY / Fold change vs veh, CCNY / RFU, UFL1 / Fold change vs veh, UFL1 / RFU, COG3 / Fold change vs veh, COG3 / RFU, DIAPH2 / Fold change vs veh, DIAPH2 / RFU, SKA2 / Fold change vs veh, SKA2 / RFU, AFF3 / Fold change vs veh, AFF3 / RFU, LMF1 / Fold change vs veh, LMF1 / RFU, IPO11 / Fold change vs veh, IPO11 / RFU, DFFB / Fold change vs veh, DFFB / RFU, FOXP1 / Fold change vs veh, FOXP1 / RFU, CARD8 / Fold change vs veh, CARD8 / RFU, STRN3 / Fold change vs veh, STRN3 / RFU, ADK / Fold change vs veh, ADK / RFU, RASSF2 / Fold change vs veh, RASSF2 / RFU, WIPF1 / Fold change vs veh, WIPF1 / RFU, LARP1B / Fold change vs veh, LARP1B / RFU, RASA1 / Fold change vs veh, RASA1 / RFU, RB1 / Fold change vs veh, RB1 / RFU, PPFIA1 / Fold change vs veh, PPFIA1 / RFU, MAT2A / Fold change vs veh, MAT2A / RFU, CCT5 / Fold change vs veh, CCT5 / RFU, WDR92 / Fold change vs veh, WDR92 / RFU, CUX1 / Fold change vs veh, CUX1 / RFU, TTC7A / Fold change vs veh, TTC7A / RFU, TMEM135 / Fold change vs veh, TMEM135 / RFU, DEPTOR / Fold change vs veh, DEPTOR / RFU, CPM / Fold change vs veh, CPM / RFU, DNAJB6 / Fold change vs veh, DNAJB6 / RFU, CACNA2D3 / Fold change vs veh, CACNA2D3 / RFU, DTX4 / Fold change vs veh, DTX4 / RFU, TFCP2 / Fold change vs veh, TFCP2 / RFU, GMCL1 /// GMCL1P1 / Fold change vs veh, GMCL1 /// GMCL1P1 / RFU, AEBP2 / Fold change vs veh, AEBP2 / RFU, SNHG1 /// SNORD22 /// SNORD25 /// SNORD26 /// SNORD27 /// SNORD28 /// SNORD29 /// SNORD31 / Fold change vs veh, SNHG1 /// SNORD22 /// SNORD25 /// SNORD26 /// SNORD27 /// SNORD28 /// SNORD29 /// SNORD31 / Fold change (Aza/veh), C12orf56 (ProbeSet 11735607_a_at) / Fold change (ACY-1035/veh), C12orf56 (ProbeSet 11735607_a_at) / Fold change (Aza/veh), FGFR1OP (ProbeSet 11751329_s_at) / Fold change (ACY-1035/veh), FGFR1OP (ProbeSet 11751329_s_at) / Fold change (Aza/veh), VPS36 (ProbeSet 11739960_a_at) / Fold change (ACY-1035/veh), VPS36 (ProbeSet 11739960_a_at) / RFU SYPL1 (11715823_x_at) / Fold change /veh SYPL1 (11715823_x_at) / RFU IGFBP7 (11715501_s_at) / Fold change /veh IGFBP7 (11715501_s_at) / RFU REEP3 (11722064_at) / Fold change /veh REEP3 (11722064_at) / RFU IGLL1 (11728026_x_at) / Fold change /veh IGLL1 (11728026_x_at): dose or concentration left out as unconfirmed
Details: ProbeSet 11758779_at; LIST B

With `Nc1ncn([C@@H]2O[C@H](CO)[C@@H](O)[C@H]2O)c(=O)n1` [azacitidine] the “Fold change vs veh, TMEM50B” value was 0.94.
